These results are taken from ChEMBL document CHEMBL1955863, “Intramolecular hydrogen bonding: a potential strategy for more bioavailable inhibitors of neuronal nitric oxide synthase” (Bioorg Med Chem, 2012).

The nature of test [1]: Selectivity ratio of Ki for bovine eNOS to Ki for rat nNOS.
A short description of test [2]: Selectivity ratio of Ki for mouse iNOS to Ki for rat nNOS.
In test [3] the target is T1, Nitric oxide synthase 1 (Rattus norvegicus, UniProt P29476). Kind of test: Inhibition of rat nNOS expressed in HEK293T cells preincubated for 30 mins prior A23187-induced activation measured after 6 hrs by Griess assay. The format is cell-based, HEK-293T.
T1 sequence (P29476 whole entry): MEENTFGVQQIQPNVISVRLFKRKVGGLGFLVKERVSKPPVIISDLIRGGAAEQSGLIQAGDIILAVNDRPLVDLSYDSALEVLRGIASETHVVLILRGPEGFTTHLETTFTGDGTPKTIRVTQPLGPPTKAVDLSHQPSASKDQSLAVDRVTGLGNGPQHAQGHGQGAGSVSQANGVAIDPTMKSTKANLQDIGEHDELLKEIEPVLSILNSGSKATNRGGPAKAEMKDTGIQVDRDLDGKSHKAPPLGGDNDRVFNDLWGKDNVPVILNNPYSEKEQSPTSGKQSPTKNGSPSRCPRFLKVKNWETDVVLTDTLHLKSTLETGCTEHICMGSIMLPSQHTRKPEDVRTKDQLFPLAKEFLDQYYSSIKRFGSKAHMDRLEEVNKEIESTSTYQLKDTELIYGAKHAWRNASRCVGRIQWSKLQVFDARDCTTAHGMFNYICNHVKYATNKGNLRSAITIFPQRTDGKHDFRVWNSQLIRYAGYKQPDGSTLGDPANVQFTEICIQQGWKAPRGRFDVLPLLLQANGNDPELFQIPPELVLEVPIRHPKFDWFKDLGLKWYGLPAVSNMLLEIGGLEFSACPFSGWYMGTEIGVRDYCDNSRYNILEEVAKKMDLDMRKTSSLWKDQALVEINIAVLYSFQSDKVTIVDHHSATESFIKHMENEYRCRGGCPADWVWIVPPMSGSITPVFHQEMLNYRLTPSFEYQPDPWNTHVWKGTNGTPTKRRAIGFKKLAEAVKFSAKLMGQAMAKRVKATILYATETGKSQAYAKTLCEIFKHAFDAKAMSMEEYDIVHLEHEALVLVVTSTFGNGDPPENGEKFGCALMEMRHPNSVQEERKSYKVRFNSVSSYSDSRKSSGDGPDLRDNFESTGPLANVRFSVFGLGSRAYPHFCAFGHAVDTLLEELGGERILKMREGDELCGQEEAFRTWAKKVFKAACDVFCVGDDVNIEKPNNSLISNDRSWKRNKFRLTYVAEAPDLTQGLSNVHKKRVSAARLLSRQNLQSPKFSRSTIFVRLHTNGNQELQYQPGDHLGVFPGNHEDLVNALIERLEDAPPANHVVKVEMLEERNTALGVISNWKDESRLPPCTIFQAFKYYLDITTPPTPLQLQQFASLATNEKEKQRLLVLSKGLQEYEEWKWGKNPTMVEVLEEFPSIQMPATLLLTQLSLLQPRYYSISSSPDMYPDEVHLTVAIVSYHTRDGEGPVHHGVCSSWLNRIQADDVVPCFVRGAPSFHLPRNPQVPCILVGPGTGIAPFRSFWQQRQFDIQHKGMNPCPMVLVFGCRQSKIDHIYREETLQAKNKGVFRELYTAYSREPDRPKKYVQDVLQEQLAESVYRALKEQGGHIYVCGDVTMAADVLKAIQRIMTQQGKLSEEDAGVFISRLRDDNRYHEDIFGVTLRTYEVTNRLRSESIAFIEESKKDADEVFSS
Test [4] has as its target T1, Nitric oxide synthase 1. Kind of test: Inhibition of recombinant rat nNOS expressed in Escherichia coli by hemoglobin capture assay.

pIC50: −log10 of the molar value.

As to `Cc1cc(N)nc(C[C@H]2CNC[C@H]2OCCNCc2ccco2)c1`, the Ratio Ki was determined as 169 in test [1] and 92 in test [2]. The pIC50 at Nitric oxide synthase 1 [3] is 4.00.
Regarding `Cc1cc(C)nc(N)c1`, the pIC50 on Nitric oxide synthase 1 [3] was 4.60; on Nitric oxide synthase 1 [4], 7.30.
`COc1ccccc1CNCCO[C@@H]1CNC[C@@H]1Cc1cc(C)cc(N)n1`: the Ratio Ki in test [1] stood at 93; in test [2], 139. The same compound showed a pIC50 against Nitric oxide synthase 1 [3] of 4.66.
`Cc1cc(N)nc(C[C@H]2CNC[C@H]2OCCNCc2ccccc2F)c1`: the Ratio Ki was 98 in test [1] and 105 in test [2]. Besides, the pIC50 at Nitric oxide synthase 1 [3] was 4.96.
Turning to `Cc1cc(N)nc(C[C@H]2CNC[C@H]2OCCNCc2ccccc2O)c1`, the values for the Ratio Ki in test [1] and in test [2] were 93 and 143, respectively. The compound also had a pIC50 on Nitric oxide synthase 1 [3] of 4.37.

Usually pIC50 stands for the negative decadic logarithm of the IC50, by convention in mol/L.
